Values quoted from earlier work in US20070232537A1, “INTRANASAL PYY FORMULATIONS WITH IMPROVED TRANSMUCOSAL PHARMACOKINETICS” (Nastech Pharmaceutical Company Inc., priority 2005, published 2007).
Blank lines part the entries; values can stand above or below the compound they belong to.

Assays:
[1] = aqueous solution at physiologic pH
[2] = anesthetized rats; increased from 7.5

Compound: NCCN(CCN)/[N+]([O-])=N/O [diethylenetriamine/NO]
NO release rate (time) [1]: approximately 20 hours

Compound: CCN(CC)/[N+]([O-])=N/O.CCNCC [diethylamine/NO]
NO release rate (time) [1]: < 3 min

nasal bioavailability of human growth hormone [2]: 12.2%
Compound: CC(=O)N[C@@H](CS)C(=O)O [N-acetyl-L-cysteine]

Compound: 2-alkyl-4-hydroxyquinolines [pyo compound]
concentration producing ciliostasis / inhibiting ciliary motility (ciliary motility): 50 µg/mL

times more effective in enzyme inhibition than bestatin (aminopeptidases): more than 100 times
times more effective in enzyme inhibition than puromycin (aminopeptidases): more than 1000 times
Compound: CC(C)CC(N)B(O)O (stereo not drawn) [boro-leucine]
